Measurements published in US20230331649A1, “INHIBITORS OF PROTEIN FUCOSYLATION AND USES THEREOF” (SIMON FRASER UNIVERSITY, priority 2020, published 2023).

Legend:
[1] = system: CHO K1 cells; assay: Cell-based fucosylation assay, fluorescein-AAL lectin staining of CHO K1 cells; set-up: species or system Chinese hamster; conditions: Cricetulus griseus, 120 h, five days with inhibitor, 3.2 nM-100 μM, AAL lectin fluorescence normalized to DMSO vehicle
Experimental: CHO K1 cells were grown in a T175 flask, in F12 medium supplemented with 10% […], at 37° C., 5% CO2. 350 cells were seeded in every well of a 384-well plate (Corning 4680, 45 μL final) and incubated at 37° C. overnight. Inhibitors were stored as 20 mM stock solution in DMSO. Inhibitors were diluted to the desired concentration in CHO cells culture medium and were dispensed into the wells of the plate (50 μL final well volume). An equivalent amount of DMSO (vehicle) was dispensed into control wells. Cells were incubated in the presence of inhibitors for five days. Following treatment, the culture medium was removed and cells were washed four times with 60 μL of PBS-T using a combination washer/dispenser (EL406, Biotek). 50 μL of 4% PFA in PBS-T was then dispensed into the plate and cells were incubated for 15 min at room temperature before being washed four times with 60 μL of PBS-T. Cells were subsequently incubated for 45 minutes at room temperature with 5% Bovine Serum Albumin (BSA) in PBS-T to prevent non-specific lectin binding. The BSA solution was then replaced by 50 μL of a solution of 5 μg/mL of Fluorescein-conjugated Aleuria Aurentia Lectin (AAL) (Vector Laboratories) and cells were kept at room temperature in the dark for 1 h. Negative controls were co-incubated with AAL and 100 mM fucose as a lectin antagonist. Cells were subsequently washed four times with 60 μL PBS-T. Then, 50 μL of 1 μg/mL Hoechst solution in PBS was dispensed into each well and cells were directly imaged using an ImageXpress MicroXLS high content microscope (Molecular Devices). Four sites per wells were imaged using DAPI and FITC channels (50 ms and 300 ms exposure respectively). Images were processed using MetaXpress software. Briefly, for each site, the integrated average fluorescence was quantified and normalized for the corresponding number of cells determined with nuclear staining. Results from each site were combined to provide a single value for each well. At least four independent wells were imaged for each condition providing four biological replicates. IC50 curves were plotted using GraphPad Prism. Results were normalized on the average value for vehicle wells (DMSO treated).
We assessed the potency of carbafucose and selected analogs through dose-response experiments over a 3.2 nM-100 μM range of concentrations in the cell-based assay. The cell-based fucosylation antagonist 2-deoxy-2-fluoro-L-fucose (2FFuc) was used as a control (FIGS. 1A-D).

[2] = system: Expi-CHO cells; assay: Glycan analysis of HER2 antibody from compound-treated Expi-CHO cells (PNGaseF release, CE-LIF); type: cell-based, Chinese hamster; conditions: 0.1 mM compound added a day after transfection with HER2 antibody, harvested after 8 days, released glycans by CE-LIF; for Glycan A2 (alt name G0) (%): non-fucosylated glycan
Experimental: Expi-CHO cells were treated with compounds 16, 7, 9, 13, 6, 8, 14 and 15 at 0.1 mM (final conc.) a day after transfection with HER2 antibody. The transfected cells were harvested after 8 days and purified HER2 antibodies were deglycosylated using PNGaseF and the released glycans were purified and analyzed by capillary electrophoresis-laser-induced fluorescence (CE-LIF).

| SMILES | IC50 [1] [µM] | Glycan A2BG2 (alt name G2B) (%) [2] [%] | Glycan FA2(3)G1 (alt name G1′F) (%) [2] [%] | Glycan FA2(6)G1 (alt name G1F) (%) [2] [%] | Glycan FA2(6)G1S1 (alt name G1FS1) (%) [2] [%] | Glycan FA2 (alt name G0F) (%) [2] [%] | Glycan FA2G2S1 (alt name G2FS1) (%) [2] [%] | Glycan FA2G2S2 (alt name G2FS2) (%) [2] [%] | Glycan A2 (alt name G0) (%) [2] [%] |
| --- | --- | --- | --- | --- | --- | --- | --- | --- | --- |
| C=C[C@@H]1C[C@H](O)[C@@H](O)[C@H](O)[C@@H]1O [1-42] | 137 ± 79 |  |  |  |  |  |  |  |  |
| C[C@@H]1C[C@H](OP(=O)(O)O)[C@@H](O)[C@H](O)[C@@H]1O [2-3] | 39.5 ± 30.3 |  |  |  |  |  |  |  |  |
| C[C@@H]1OC(O)[C@@H](F)[C@H](O)[C@@H]1O (stereo partly drawn) [2FFuc, 2-deoxy-2-fluoro-L-fucose, reference compound] | 137 ± 79 |  |  |  |  |  |  |  |  |
| CC1=C[C@H](O)[C@@H](F)[C@H](O)[C@@H]1O [Compound 6] |  | 0.8 | 0.6 | 4.1 | 0.8 | 77.7 | 15.9 | 0.0 | 0.0 |
| CC(=O)O[C@H]1[C@H](F)[C@@H](OC(C)=O)C=C(C)[C@H]1OC(C)=O [Compound 7] |  | 0.0 | 0.0 | 3.9 | 0.0 | 79.5 | 16.6 | 0.0 | 0.0 |
| CC1C[C@H](O)[C@@H](F)[C@H](O)[C@@H]1O (stereo partly shown) [Compound 8] |  | 0.0 | 0.0 | 3.9 | 0.0 | 79.3 | 16.8 | 0.0 | 0.0 |
| CC(=O)O[C@H]1[C@H](F)[C@@H](OC(C)=O)CC(C)[C@H]1OC(C)=O (stereo partly shown) [Compound 9] |  | 0.8 | 0.0 | 3.9 | 0.0 | 78.9 | 16.4 | 0.0 | 0.0 |
| CC1=C[C@H](O)[C@@H](O)[C@H](O)[C@@H]1O [Compound 13] |  | 0.8 | 0.0 | 3.9 | 0.9 | 77.3 | 17.0 | 0.0 | 0.0 |
| CC1C[C@H](O)[C@@H](O)[C@H](O)[C@@H]1O (stereo partly shown) [Compound 15] |  | 0.0 | 0.0 | 0.0 | 17.2 | 8.8 | 0.0 | 3.3 | 70.6 |
| C[C@@H]1C[C@H](O)[C@@H](O)[C@H](O)[C@@H]1O [carbafucose] | 16.1 ± 7.7 |  |  |  |  |  |  |  |  |
